Article PMC4371799 (Clinical Epigenetics, 2015)
Several values for one entry are separate records, joined by “and”; a condition that tells them apart may be missing. Equal values may be shown once. Read-outs that look alike come from different tables or passages of the source.

Legend:
[1] = tested on: platinum-resistant ovarian cancer cells; settings: cited from earlier work
[2] = Azacitidine plasma pharmacokinetics, non-compartmental analysis; format: in vivo, patients; settings: for AUC / Cmax / half-life / AUC(0-inf): human, plasma, intravenous
Excerpt: Compartmental and non-compartmental modeling were used to derive pharmacokinetic parameters, including Cmax (maximum concentration), AUC (area under the curve), t1/2 (half-life of elimination), Vd (volume of distribution), and CL (clearance).

[3] = azacitidine/oxaliplatin 20/15 mg/m^2, C1D1, n = 3, mean (SD)
[4] = azacitidine/oxaliplatin 20/15 mg/m^2, C1D5, n = 3, mean (SD)
[5] = azacitidine/oxaliplatin 20/22.5 mg/m^2, C1D1, n = 3, mean (SD)
[6] = azacitidine/oxaliplatin 20/22.5 mg/m^2, C1D5, n = 3, mean (SD)
[7] = azacitidine/oxaliplatin 20/30 mg/m^2, C1D1, n = 3, mean (SD)
[8] = azacitidine/oxaliplatin 20/30 mg/m^2, C1D5, n = 3, mean (SD)
[9] = azacitidine/oxaliplatin 25/30 mg/m^2, C1D1, n = 3, mean (SD)
[10] = azacitidine/oxaliplatin 25/30 mg/m^2, C1D5, n = 3, mean (SD)
[11] = azacitidine/oxaliplatin 40/30 mg/m^2, C1D1, n = 3, mean (SD)
[12] = azacitidine/oxaliplatin 40/30 mg/m^2, C1D5, n = 3, mean (SD)
[13] = azacitidine/oxaliplatin 50/30 mg/m^2, C1D1, n = 22, mean (SD)
[14] = azacitidine/oxaliplatin 50/30 mg/m^2, C1D5, n = 22, mean (SD)

Nc1ncn([C@@H]2O[C@H](CO)[C@@H](O)[C@H]2O)c(=O)n1 [azacitidine]
effect on sensitivity to carboplatin [1]: enhance the sensitivity of platinum-resistant ovarian cancer cells to carboplatin | dose-dependent interaction on mean systemic exposure (plasma AUCall) ([2]; azacitidine D1 and 5, with oxaliplatin): increasing the dose of oxaliplatin reduced the mean azacitidine exposure | CL [2, 3]: 167.1 (170.5) l/h/m^2 | V d [2, 3]: 92.3 (58.9) l/m^2 | CL [2, 4]: 136.7 (97.0) l/h/m^2 | V d [2, 4]: 61.1 (35.4) l/m^2 | CL [2, 5]: 62.7 (53.9) l/h/m^2 | V d [2, 5]: 78.6 (54.4) l/m^2 | CL [2, 6]: 62.9 (25.4) l/h/m^2 | V d [2, 6]: 85.4 (69.0) l/m^2 | CL [2, 7]: 239.3 (139.2) l/h/m^2 | V d [2, 7]: 226.5 (253.4) l/m^2 | CL [2, 8]: 146.1 (40.0) l/h/m^2 | V d [2, 8]: 71.6 (19.0) l/m^2 | CL [2, 9]: 168.6 (126.7) l/h/m^2 | V d [2, 9]: 70.3 (35.7) l/m^2 | CL [2, 10]: 150.0 (74.6) l/h/m^2 | V d [2, 10]: 132.2 (62.5) l/m^2 | CL [2, 11]: 616.6 (525.5) l/h/m^2 | V d [2, 11]: 105.8 (37.0) l/m^2 | CL [2, 12]: 253.0 (165.5) l/h/m^2 | V d [2, 12]: 95.6 (57.3) l/m^2 | AUCinf [2, 13]: 412.1 (195.7) h-ng/ml | C max [2, 13]: 581.1 (284.8) ng/ml | CL [2, 13]: 178 l/h/m^2 and 177.7 (155.9) l/h/m^2 | V d [2, 13]: 121 l/m^2 and 120.6 (112.0) l/m^2 | AUCinf [2, 14]: 431.5 (261.7) h-ng/ml | C max [2, 14]: 637.7 (428.6) ng/ml | CL [2, 14]: 156 l/h/m^2 and 156.2 (80.7) l/h/m^2 | V d [2, 14]: 94 l/m^2 and 94.0 (50.7) l/m^2 | AUC [2, 3]: 216 ng·h/mL | Cmax [2, 3]: 327 ng/mL | half-life [2, 3]: 32.4 min | AUC(0-inf) ([2]; azacitidine/oxaliplatin 20/15 mg/m^2, C1D1, n = 3, mean (SD), read-out: AUCinf): 221 ng·h/mL | AUC [2, 4]: 193 ng·h/mL | Cmax [2, 4]: 334 ng/mL | half-life [2, 4]: 21 min | AUC(0-inf) ([2]; azacitidine/oxaliplatin 20/15 mg/m^2, C1D5, n = 3, mean (SD), read-out: AUCinf): 196 ng·h/mL | AUC [2, 5]: 428 ng·h/mL | Cmax [2, 5]: 427 ng/mL | half-life [2, 5]: 653 min | AUC(0-inf) ([2]; azacitidine/oxaliplatin 20/22.5 mg/m^2, C1D1, n = 3, mean (SD), read-out: AUCinf): 2330 ng·h/mL | AUC(0-inf) ([2]; azacitidine/oxaliplatin 20/22.5 mg/m^2, C1D1, n = 3, median (footnote a), read-out: AUCinf, median): 259 ng·h/mL | AUC [2, 6]: 317 ng·h/mL | Cmax [2, 6]: 452 ng/mL | half-life [2, 6]: 76.2 min | AUC(0-inf) ([2]; azacitidine/oxaliplatin 20/22.5 mg/m^2, C1D5, n = 3, mean (SD), read-out: AUCinf): 357 ng·h/mL | AUC [2, 7]: 112 ng·h/mL | Cmax [2, 7]: 206 ng/mL | half-life [2, 7]: 32.4 min | AUC(0-inf) ([2]; azacitidine/oxaliplatin 20/30 mg/m^2, C1D1, n = 3, mean (SD), read-out: AUCinf): 125 ng·h/mL | AUC [2, 8]: 144 ng·h/mL | Cmax [2, 8]: 214 ng/mL | half-life [2, 8]: 20.4 min | AUC(0-inf) ([2]; azacitidine/oxaliplatin 20/30 mg/m^2, C1D5, n = 3, mean (SD), read-out: AUCinf): 146 ng·h/mL | AUC [2, 9]: 210 ng·h/mL | Cmax [2, 9]: 252 ng/mL | half-life [2, 9]: 19.8 min | AUC(0-inf) ([2]; azacitidine/oxaliplatin 25/30 mg/m^2, C1D1, n = 3, mean (SD), read-out: AUCinf): 216 ng·h/mL | AUC [2, 10]: 208 ng·h/mL | Cmax [2, 10]: 273 ng/mL | half-life [2, 10]: 43.2 min | AUC(0-inf) ([2]; azacitidine/oxaliplatin 25/30 mg/m^2, C1D5, n = 3, mean (SD), read-out: AUCinf): 214 ng·h/mL | AUC [2, 11]: 97.5 ng·h/mL | Cmax [2, 11]: 190 ng/mL | half-life [2, 11]: 9.6 min | AUC(0-inf) ([2]; azacitidine/oxaliplatin 40/30 mg/m^2, C1D1, n = 3, mean (SD), read-out: AUCinf): 100 ng·h/mL | AUC [2, 12]: 206 ng·h/mL | Cmax [2, 12]: 289 ng/mL | half-life [2, 12]: 16.2 min | AUC(0-inf) ([2]; azacitidine/oxaliplatin 40/30 mg/m^2, C1D5, n = 3, mean (SD), read-out: AUCinf): 212 ng·h/mL | AUC [2, 13]: 404 ng·h/mL | Cmax [2, 13]: 581 ng/mL | half-life [2, 13]: 40.2 min | AUC(0-inf) ([2]; azacitidine/oxaliplatin 50/30 mg/m^2, C1D1, n = 22, mean (SD), read-out: AUCinf): 412 ng·h/mL | AUC [2, 14]: 426 ng·h/mL | Cmax [2, 14]: 638 ng/mL | half-life [2, 14]: 25.2 min | AUC(0-inf) ([2]; azacitidine/oxaliplatin 50/30 mg/m^2, C1D5, n = 22, mean (SD), read-out: AUCinf): 432 ng·h/mL
